Results: article PMC7915682, “Pursuing Orally Bioavailable Hepcidin Analogues via Cyclic N-Methylated Mini-Hepcidins” (Biomedicines, 2021)
Like-named read-outs stand apart in the source and are kept apart here. Where a SMILES comes first, the peptide text is derived from it. Where no end group is shown, it is not given here.

Columns and labels:
[1] = molecular target: T1, GFP-tagged ferroportin (FPN) (Homo sapiens, UniProt Q9NP59); assay: FPN-GFP degradation (internalisation) assay by flow cytometry in HEK293:T-REx-FPN-GFP cells; type: cell-based; conditions: 24 h treatment; for EC50: FPN degradation dose-response, HEK293:T-REx-FPN-GFP cells; for FPN Degradation % ± SEM: peptide 10 μM, normalised with respect to hepcidin (1 μM), n = 3
T1 construct: expressed in transfected cells
T1 sequence (Q9NP59 1-571): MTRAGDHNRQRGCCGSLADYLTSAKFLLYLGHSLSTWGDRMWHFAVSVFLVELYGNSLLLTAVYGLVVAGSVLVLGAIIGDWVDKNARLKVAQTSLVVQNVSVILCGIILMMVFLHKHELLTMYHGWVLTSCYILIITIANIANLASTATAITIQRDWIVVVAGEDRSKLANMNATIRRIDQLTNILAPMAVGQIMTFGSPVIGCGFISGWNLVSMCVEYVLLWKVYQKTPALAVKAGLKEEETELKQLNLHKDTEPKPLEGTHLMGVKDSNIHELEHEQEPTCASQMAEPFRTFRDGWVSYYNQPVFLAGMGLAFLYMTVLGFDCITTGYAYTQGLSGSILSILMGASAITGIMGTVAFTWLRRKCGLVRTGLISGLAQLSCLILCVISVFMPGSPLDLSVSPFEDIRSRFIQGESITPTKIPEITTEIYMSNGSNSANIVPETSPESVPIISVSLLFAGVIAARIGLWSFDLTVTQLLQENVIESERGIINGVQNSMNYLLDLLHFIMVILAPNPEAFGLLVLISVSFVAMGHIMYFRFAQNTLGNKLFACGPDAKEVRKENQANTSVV
Method: HEK293:T-REx^TM-FPN-GFP cells, described previously, were cultured in T75 flasks containing FPN-GFP media (Dulbecco’s Modified Eagle’s Medium (DMEM) containing high glucose, GlutaMAX^TM supplement, hydroxyethyl piperazineethanesulfonic acid (HEPES), 10% tetracycline screened foetal bovine serum (FBS), 1% penicillin/streptomycin, and 100 μg/mL of hygromycin) and maintained at 37 °C in a humidified atmosphere of 5% CO2.
HEK293:T-REx^TM-FPN-GFP cells were plated in FPN-GFP media in the presence of 20 µM FAC (ferric ammonium citrate = ammonium iron (III) citrate) and induced on the following day with 50 ng/mL of doxycycline hydrochloride. After 24 h, doxycycline hydrochloride was washed off with PBS (phosphate buffered saline) and the cells were treated with peptides for another 24 h. Cells were then trypsinised, centrifuged (5 min at 1000 rpm), and resuspended in PBS at approximately 1 × 10^4 cell/µL. The intensity of green fluorescence was measured by flow cytometry performed on a Becton Dickinson LSR Fortessa-X-20. Cells not induced with doxycycline hydrochloride were used to establish a gate to exclude background fluorescence, and cells induced to express FPN-GFP but not treated with any peptides were used as the positive control. Each peptide treatment was repeated independently at least three times except for the initial screening of the mono N-methylated analogues (Figure 2), which was only performed once. The results were expressed as the % of the reduction in fluorescence with respect to hepcidin-treated cells according to the following formula: % FPN Degradation = (1 − (average FHepc − Fχ)/(average FHepc − average Funtreated)) × 100, where F corresponds to the GFP gate median, and χ to the peptide analysed.
Peptide bioactivity was measured using HEK293:T-REx^TM-FPN-GFP cells stably expressing a GFP-tagged ferroportin (FPN) construct that was treated overnight with different concentrations of hepcidin or analogues. FPN-GFP expression and FPN-GFP internalisation and degradation in response to hepcidin treatment were confirmed by confocal microscopy, and the % of GFP fluorescence was then analysed by flow cytometry and expressed as a % FPN degradation. […] This promising result led us to design a second series of analogues that included multiple N-methylated residues with and without backbone cyclisation.

[2] = Serum stability assay (25% human male serum, 37 °C, LC-MS); type: in vitro ADME
Method: Human male serum was centrifuged at 20,000 g for 10 min and the clear part of the supernatant was then diluted to 25% (v/v) with Milli-Q® water and incubated at 37 °C for 15 min. Each peptide sample was dissolved in triplicate at a final concentration of 20 μM in pre-incubated 25% serum, or Milli-Q® water as a control. […] Supernatant was then removed and transferred into vials for liquid chromatography mass spectrometry (LC-MS) analysis (50 μL injection and multiple reaction monitoring (MRM) protocol, Table S2). The effect of these strategies on the stability of mini-hepcidin analogues was investigated by incubating selected derivatives in human male serum at 37 °C and collecting samples at various time points. The results were then quantitated by liquid chromatography-mass spectrometry (LC-MS). We were unable to determine the serum stability of all analogues as the recovery from serum and detection of the peptides was very low. Modification of sample preparation protocols, optimisation of LC/MS conditions, and reducing serum concentration to 25% were unable to improve yield/detection. We would predict that this poor recovery is due to high binding of peptides to serum proteins, which is consistent with native hepcidin, which binds to α-2-macroglobulin [35, 36]. […] Effect of macrocyclisation and N-methylation on the stability of selected mini- hepcidin derivatives. A) Illustration of sites most susceptible to enzymatic attack in mini- hepcidin derivatives. B) Serum stability analysis of selected […]. Human male serum was centrifuged at 20,000 g for 10 minutes and the clear part of the supernatant was then diluted to 25% (v/v) with Milli-Q® water and incubated at 37 °C for 15 minutes. Each peptide sample was dissolved in triplicate at a final concentration of 20 μM in pre-incubated 25% serum, or Milli-Q® water as a control. Aliquots of 100 μL were removed at different time points and quenched with 100 μL of 15% trichloroacetic acid (TCA), followed by […] Supernatant was then removed and transferred into vials for liquid chromatography mass spectrometry (LC- MS) analysis (50 μL injection and multiple reaction monitoring (MRM) protocol). Error bars […] Comparison between Hep9, 2, […]9, 9. (also on this page, place not known: […] Hep9 2 […]] 7 Proteolytic attack Reduced proteolytic attack Blocked proteolytic attack 0 50 100 150 200 0 50 100 Time /min % Peptide Remaining 2 9 A B 7) (1 picture or pasted object on this page, not shown here)

Caco-2 = Caco-2 in vitro model (preliminary); type: in vitro ADME; conditions: preliminary results, data not shown
Excerpt: It has been proposed that by enhancing the lipophilicity of peptides, the intestinal permeability could be improved by facilitating transcellular absorption (passive diffusion). Thus, our rationale was to improve the permeability of Hep9 2, by increasing its lipophilicity via both cyclisation and multiple N-methylations. […] Cyclisation and N-methylation appear to facilitate the crossing of the artificial lipid membrane for cHep9[Ser^1, MeThr^2, MeIle^8] 13, but this enhancement was not statistically significant relative to atenolol, a marker for poor transcellular permeability, or Hep9 2, (Figure 5). […] Preliminary results from a Caco-2 in vitro model were consistent with the PAMPA data (data not shown).

EC50 [1] [nM] | Compound | further results
40700 | CC[C@H](C)[C@H](NC(=O)[C@H](CS)NC(=O)[C@H]([C@@H](C)CC)N(C)C(=O)[C@@H]1CCCN1C(=O)[C@H](Cc1ccccc1)NC(=O)[C@H](Cc1c[nH]cn1)NC(=O)[C@H]([C@@H](C)O)N(C)C(=O)[C@@H](N)CO)C(=O)N[C@@H](Cc1ccccc1)C(=O)O [Peptide 5, S[N-Me T]HFP[N-Me I]CIF] (HELM PEPTIDE1{S.[meT].H.F.P.[meI].C.I.F}$$$$V2.0; N-terminus assumed) | –
2170 | CC[C@H](C)[C@H](NC(=O)[C@@H]1CCCN1C(=O)[C@H](Cc1ccccc1)NC(=O)[C@H](Cc1c[nH]cn1)NC(=O)[C@H]([C@@H](C)O)N(C)C(=O)[C@@H](N)CO)C(=O)N[C@@H](CS)C(=O)N(C)[C@H](C(=O)N[C@@H](Cc1ccccc1)C(=O)O)[C@@H](C)CC [Peptide 6, S[N-Me T]HFPIC[N-Me I]F] (HELM PEPTIDE1{S.[meT].H.F.P.I.C.[meI].F}$$$$V2.0; N-terminus assumed) | half-life at 20 μM ([2]; 25% (v/v) human male serum, 20 μM peptide in 25% human male serum, 37 °C, read-out: peptide half-life in serum): ~12 min; stability relative to Hep9 ([2]; 25% human male serum, 37 °C, ratio of half-lives): approximately four
1890 | CC[C@H](C)[C@@H](C(=O)N[C@@H](Cc1ccccc1)C(=O)O)N(C)C(=O)[C@H](CS)NC(=O)[C@H]([C@@H](C)CC)N(C)C(=O)[C@@H]1CCCN1C(=O)[C@H](Cc1ccccc1)NC(=O)[C@H](Cc1c[nH]cn1)NC(=O)[C@H]([C@@H](C)O)N(C)C(=O)[C@@H](N)CO [Peptide 7, S[N-Me T]HFP[N-Me I]C[N-Me I]F] (HELM PEPTIDE1{S.[meT].H.F.P.[meI].C.[meI].F}$$$$V2.0; N-terminus assumed) | –
– | CC[C@H](C)[C@@H]1NC(=O)[C@H](CS)NC(=O)[C@H]([C@@H](C)CC)NC(=O)[C@@H]2CCCN2C(=O)[C@H](Cc2ccccc2)NC(=O)[C@H](Cc2c[nH]cn2)NC(=O)[C@H]([C@@H](C)O)NC(=O)[C@H](CC(=O)O)NC(=O)[C@H](Cc2ccccc2)NC1=O [Peptide 8] | half-life at 20 μM ([2]; serum (25% v/v), 20 μM peptide in 25% human male serum, 37 °C, read-out: peptide half-life in serum): ~8 min
266 | CC[C@H](C)[C@@H]1NC(=O)[C@H](CS)NC(=O)[C@H]([C@@H](C)CC)NC(=O)[C@@H]2CCCN2C(=O)[C@H](Cc2ccccc2)NC(=O)[C@H](Cc2c[nH]cn2)NC(=O)[C@H]([C@@H](C)O)NC(=O)[C@H](CO)NC(=O)[C@H](Cc2ccccc2)NC1=O [Peptide 9] (HELM PEPTIDE1{C.I.F.S.T.H.F.P.I}$PEPTIDE1,PEPTIDE1,1:R1-9:R2$$$V2.0) | –
158 | CC[C@H](C)[C@@H]1NC(=O)[C@H](CS)NC(=O)[C@H]([C@@H](C)CC)NC(=O)[C@@H]2CCCN2C(=O)[C@H](Cc2ccccc2)NC(=O)[C@H](Cc2c[nH]cn2)NC(=O)[C@H]([C@@H](C)O)NC(=O)[C@H](CC(=O)O)NC(=O)CNC(=O)CNC(=O)CNC(=O)CNC(=O)[C@H](Cc2ccccc2)NC1=O [Peptide 10] (HELM PEPTIDE1{C.I.F.G.G.G.G.D.T.H.F.P.I}$PEPTIDE1,PEPTIDE1,1:R1-13:R2$$$V2.0) | –
– | DTHFP[N-Me I]C[N-Me I]F [Peptide 4] | FPN Degradation % ± SEM [1]: Not active
326 | STHFPICIF-OH [Peptide 3] | –
– | c(DTH[N-Me F]PICI[N-Me F]) [Peptide 11] | FPN Degradation % ± SEM [1]: 63 ± 1.6%

Compound | EC50 [1] [nM] | further results
CC[C@H](C)[C@@H]1NC(=O)[C@@H](NC(=O)[C@@H](NC(=O)[C@@H]2CCCN2C(=O)[C@H](Cc2ccccc2)NC(=O)[C@H](Cc2c[nH]cn2)NC(=O)[C@@H](NC(=O)[C@@H](N)CC(=O)O)[C@@H](C)O)[C@@H](C)CC)CSSC[C@@H](C(=O)N[C@@H](CCCCN)C(=O)N[C@H](C(=O)O)[C@@H](C)O)NC(=O)[C@@H]2CSSC[C@@H]3NC(=O)[C@@H]4CSSC[C@H](NC(=O)[C@H](Cc5ccccc5)NC1=O)C(=O)N[C@@H](CSSC[C@H](NC(=O)[C@H](CCCCN)NC(=O)[C@H](CO)NC(=O)[C@H](CCCNC(=N)N)NC(=O)[C@H](Cc1c[nH]cn1)NC3=O)C(=O)NCC(=O)N[C@@H](CCSC)C(=O)N2)C(=O)NCC(=O)N4 [Peptide 1, reference compound] | 9.38 | FPN Degradation % ± SEM [1]: 100 ± 2.6%
CC[C@H](C)[C@H](NC(=O)[C@H](CS)NC(=O)[C@@H](NC(=O)[C@@H]1CCCN1C(=O)[C@H](Cc1ccccc1)NC(=O)[C@H](Cc1c[nH]cn1)NC(=O)[C@@H](NC(=O)[C@@H](N)CC(=O)O)[C@@H](C)O)[C@@H](C)CC)C(=O)N[C@@H](Cc1ccccc1)C(=O)O [Peptide 2, reference compound] | 2110 | half-life at 20 μM ([2]; male, human, serum): ~3 min
CC[C@H](C)[C@H]1C(=O)N[C@@H](Cc2ccccc2)C(=O)N[C@@H](CC(=O)O)C(=O)N[C@@H]([C@@H](C)O)C(=O)N[C@@H](Cc2c[nH]cn2)C(=O)N[C@@H](Cc2ccccc2)C(=O)N2CCC[C@H]2C(=O)N(C)[C@@H]([C@@H](C)CC)C(=O)N[C@@H](CS)C(=O)N1C [Peptide 12, c(DTHFP[N-Me I]C[N-Me I]F)] | 2900 | –
CC[C@H](C)[C@@H]1NC(=O)[C@@H]2CCCN2C(=O)[C@H](Cc2ccccc2)NC(=O)[C@H](Cc2c[nH]cn2)NC(=O)[C@H]([C@@H](C)O)N(C)C(=O)[C@H](CO)NC(=O)[C@H](Cc2ccccc2)NC(=O)[C@H]([C@@H](C)CC)N(C)C(=O)[C@H](CS)NC1=O [Peptide 13, c(S[N-Me T]HFPIC[N-Me I]F)] (HELM PEPTIDE1{S.[meT].H.F.P.I.C.[meI].F}$PEPTIDE1,PEPTIDE1,1:R1-9:R2$$$V2.0) | 140 | Caco-2 permeability (Caco-2): paralleled these observations
